Reference: patent US20240158448A1, “MULTIVALENT NANO-'SELF' PEPTIDES AND USES THEREOF” (THE TRUSTEES OF THE UNIVERSITY OF PENNSYLVANIA, priority 2021, published 2024)
“Also recorded” adds a separate entry of the source. No end group written: not given here.

Experiments:
[1] = target: T1, soluble human SIRPα (Homo sapiens, UniProt P78324); experiment: Binding of biotinylated peptides on streptavidin beads to soluble SIRPα
T1 construct: Soluble human SIRPα fused with glutathione s-transferase (SIRPα-GST); GST (glutathione S-transferase); made in house
T1 sequence (P78324 31-373 limits assumed): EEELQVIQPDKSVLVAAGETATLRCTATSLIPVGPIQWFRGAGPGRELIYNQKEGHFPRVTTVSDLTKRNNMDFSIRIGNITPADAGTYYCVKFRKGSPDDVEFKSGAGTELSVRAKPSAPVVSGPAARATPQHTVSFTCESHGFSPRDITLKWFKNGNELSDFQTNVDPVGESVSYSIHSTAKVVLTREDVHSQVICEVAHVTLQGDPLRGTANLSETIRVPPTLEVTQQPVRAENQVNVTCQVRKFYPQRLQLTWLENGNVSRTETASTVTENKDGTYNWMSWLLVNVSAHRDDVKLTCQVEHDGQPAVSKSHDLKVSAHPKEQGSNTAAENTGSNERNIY
From the text: SIRPα Expression and Purification. Soluble human SIRPα fused with glutathione s-transferase (SIRPα-GST) was expressed and purified as previously published (Tsai, et al., 2008, J. Cell Biol. 180:989-1003).
Peptide biotinylation: NHS-biotin (Thermo Fischer) was mixed with nS-wt and nS-V, respectively, following the manufacturer's protocol. The biotinylated peptides were dialyzed against PBS.
Streptavidin-beads binding: Streptavidin-coated polystyrene beads of 2.1 μm radius (Spherotech) were washed and blocked 3x in PBS plus 0.4% BSA. nS-wt-biotin or nS-V-biotin were incubated with the beads for 1 hour at room temperature with shaking. Beads were washed with PBS, then incubated with recombinant SIRPα for 1 hour in ice. Streptavidin beads were labeled with rabbit anti-streptavidin-FITC (Invitrogen) and SIRPα was stained with mouse anti-SIRPα-allophycocyanin (anti-SIRPα-APC; Invitrogen).

[2] = system: human THP-1 macrophages; experiment: In vitro phagocytosis assay: opsonized human RBCs engulfed by peptide-treated THP-1 macrophages; type: cell-based
Protocol: In vitro phagocytosis assay. Fresh human RBCs were washed twice with 50 mM EDTA (Thermo Fischer) in PBS (Gibco) then twice with 5% FBS in PBS. RBCs were opsonized with 20 μg/mL rabbit anti-human RBC antibody (Rockland) in 5% FBS for 1 hour at RT with shaking. For CD47 blocked RBCs, 5 μg/mL of mouse anti-human CD47 (B6H12; BD Biosciences) were added. Thereafter, RBCs were washed with PBS three times and stained with PKH26 dye (1:800 dilution in PBS; Sigma) for 1 hour at RT with shaking in the dark. RBCs were washed and resuspended in PBS.
THP-1 monocytes were PMA differentiated in RPMI for 48 hours. Macrophages were then washed with RPMI media three times. For SIRPα blocked THP-1 macrophages, 20 nM, 1 μM or 50 μM of the nano—Self peptides were incubated with the THP-1 macrophages for 1 hour at 37 ° C., 5% CO2 and 95% humidity. Those THP-Is were then washed with RPMI three times.
(§1) CO2 and 95% humidity. Macrophages were then washed with RPMI three times. Adherent and uninternalized RBCs were lysed with water for 30 seconds followed by immediate replacement with RPMI media. In order to distinguish remaining adherent RBCs from internalized RBCs, opsonized RBCs were stained with AlexaFluor 647 donkey anti-rabbit (binds to rabbit polyclonal opsonin on RBC; Invitrogen) IgG (1:1000) while unopsonized, CD47 blocked RBCs were stained with AlexaFluor 647 donkey anti-mouse (binds to mouse monoclonal anti-CD47 on RBCs; Invitrogen) IgG (1:1000) for 30 minutes. After washing, macrophages were fixed with 4% formaldehyde for 15 minutes at RT, washed with PBS, stained with 1 μg/mL Hoechst 33342, and then washed with PBS again. Fluorescence imaging was performed as described elsewhere herein and quantification was done using ImageJ. At least 200 cells were analyzed and experiments were repeated at least three times.

[3] = system: mouse bone marrow derived macrophages (BMDMs); experiment: Phagocytosis of anti-TYRP1 opsonized B16F10 melanoma cells by mouse bone marrow derived macrophages; type: cell-based; details: 50 μM peptide
Protocol: B16F10 cells: Bone marrow cells were isolated from femurs and tibias of healthy C57BL6/J mice (The Jackson Laboratory) and cultured in 10-cm petri dishes containing IMDM (Gibco) supplemented with 10% v/v FBS, 1% v/v penicillin/streptomycin, and 1:10,000 macrophage colony stimulating factor cytokine (M-CSF; Biolegend) for 7 days at 37° C., 5% CO2 and 95% humidity. All animal experiments were performed according to protocols approved by the University of Pennsylvania's IACUC (protocol #805977 and #804455). The resulting mouse bone marrow derived macrophages (BMDMs) were washed with PBS containing Ca2^+/Mg2^+ (Gibco) then detached with 0.25% trypsin-EDTA (Gibco) and re-plated in 6-well tissue culture plates using IMDM+M-CSF for 24 hours.
Mouse melanoma B16F10 cells were washed with PBS containing Ca2-/Mg2- and then trypsinized with 0.05% trypsin-EDTA. After washing twice with PBS, the cells were labeled with 1:10,000 CFDA—SE (Thermo Fisher) in PBS for 10 minutes. B16F10 cells were opsonized with 10 μg/mL anti-TYRP1 (TA99; Bio X Cell) in PBS for 2 hours at 4° C.with occasional inverting. For CD47 blocked B16F10 cells, 5 μg/mL of […] were added. During the incubation time, the BMDMs were washed with media then stained with 1:2,000 CellTracker Deep Red (Thermo Fisher) in PBS with Ca2^+/Mg2^+ for 10 min. After washing, 50 μM of the nano—Self peptides were incubated with the BMDMs for 1 hour at 37° C., 5% CO2 and 95% humidity. Finally, BMDMs were washed twice with PBS and then twice with serum-free IMDM.
Without removing the supernatant, the opsonized melanoma cells were added to the labeled BMDMs at a ratio of 2:1 for 2 hours at 37° C., 5% CO2 and 95% humidity. During the last 15 minutes of the assay, the cells were Hoechst stained. The wells were washed with serum free IMDM then fixed with 4% formaldehyde for 15 minutes at RT, and PBS washed. Fluorescence imaging was performed using an Olympus IX71 with a digital EMCCD camera (Cascade 512B) and a 40×/0.6 NA objective. Quantification was done with ImageJ (NIH). At least 200 cells were analyzed and two-tailed student's t-test was used to determine statistical significance.

[4] = system: THP-1 macrophages; experiment: Phosphotyrosine (pTyr) staining of THP-1 macrophages; type: cell-based, human; details: 50 μM peptide
Protocol: Phosphotyrosine (pTyr) staining. THP-1 monocytes were PMA differentiated for 48 hours. Macrophages were washed with RPMI three times then incubated with 50 μM and 20 nM of either nS-F or nS-FF for 1 hour at 37° C., 5% CO2 and 95% humidity. The same conditions were replicated with the addition of 5 μg/mL anti-CD47. Excess peptide was washed with PBS then macrophages were fixed. […] After washing with PBS, the macrophages were incubated with 1:100 mouse anti-pTyr (Santa Cruz Biotechnology) for 1 hour at room temperature with shaking. Macrophages were washed with PBS then stained with AlexaFluor 488 donkey anti-mouse (1:1000; Invitrogen) and 1 μg/mL Hoechst 33342 for 1 hour with shaking then washed again. Fluorescence imaging and quantification was performed as described elsewhere herein.

[5] = system: A549 (SIRPα positive) cells; experiment: Confocal live staining with FAM-labeled peptides, A549 cells; type: binding, human; details: 100 uM and 1 μM FAM-labeled peptide
Protocol: SIRPα staining and confocal imaging. THP-1 monocytes were PMA-differentiated in RPMI 1640 for 24 hours. J774A.1, A549, and COS-1 cells were plated for 24 hours in media, respectively. Cells were washed with respective media prior to addition of fluorescent peptides. The peptides were left to incubate for 1 hour at 37 ° C., 5% CO2 and 95% humidity. For fixed cell staining, cells were incubated with 4% formaldehyde (Pierce) for 15 minutes prior to the addition of fluorescent peptides whereas for live cell staining, fixation was done after incubation with the FAM-labeled peptides. Nuclei were stained with 1 μg/mL Hoechst 33342 (Invitrogen). Cells were the washed PBS three times before analysis. Fluorescence imaging of fixed cells was performed using an Olympus IX71 with a digital EMCCD camera (Cascade 512B) and a 40×/0.6 NA objective. […] Quantification was done with ImageJ (NIH).
In order to visualize the uneven binding of the peptides to the surface of the macrophages, a live staining experiment of THP-1, J774A.1, and A549 cells, which all express SIRPα at different levels, was performed with FAM-labeled nS-wt and nS-X and analyzed by confocal microscopy (FIG. 11). […] Fluorescence of nS-X was consistently lower on THP-1 and J774A.1 macrophages relative to nS-wt. […]

[6] = system: human THP-1 macrophages; experiment: Residual adhesion of opsonized RBCs to macrophages; type: cell-based; details: 50 μM peptide
From the text: To measure the residual adhesion of RBCs and distinguish it from internalization by macrophages, the engulfment assay with human RBCs used a secondary antibody against the opsonizing IgG, which allowed us to clearly see RBCs in contact with macrophages that are not internalized (FIG. 29C). The cells are also firmly attached to the macrophages because the culture dishes were rinsed after fixation and secondary antibody labeling. […] All of the RBCs in these samples are equally opsonized with IgG that binds Fc-receptors (FcR's) on macrophages, and so differences in measured adhesion implicate differences in the CD47—SIRPα interaction.

[7] = system: mouse J774A.1 macrophages; experiment: In vitro phagocytosis assay: opsonized human RBCs engulfed by mouse J774A.1 macrophages; type: cell-based; details: saturating / 50 μM peptide
Protocol: as §1, with “In vitro phagocytosis assay. […] For CD47 blocked RBCs, 5 μg/mL of mouse anti-human CD47 (B6H12; BD Biosciences) were added. Thereafter, RBCs were washed with PBS three times and stained with PKH26 dye (1:800 dilution in PBS; Sigma) for 1 hour at RT with shaking in the dark. RBCs were washed and resuspended in PBS. J774A.1 macrophages were plated for 24 hours in RPMI. For SIRPα blocked J774A.1 macrophages, the same peptide blocking procedure as described elsewhere herein was used with the addition of a positive control using 5 μg/mL rat anti-mouse SIRPα ([…]; BD Biosciences). […] CO2” for “CO2”

Row | Sequence | SIRPα binding to peptide-coated beads [1] | effect on phagocytosis of opsonized RBCs (words) ([2]; 20 nM peptide) | effect on phagocytosis of opsonized RBCs (words) ([2]; saturating / 50 μM peptide) | effect on phagocytosis of opsonized WT and SIRPα KO B16 cells [3] | effect on pTyr signal [4] | effect on pTyr signal ([4]; listed as nSX) | binding to A549 cells [5] | residual adhesion of opsonized RBCs to macrophages [6] | effect on phagocytosis of opsonized RBCs (words) ([2]; saturating / 50 μM peptide, listed as nSX) | effect on phagocytosis of opsonized RBCs (words) [7] | increase of macrophage phagocytosis relative to nS-wt ([2]; saturating peptide)
1 | VTELVREG [nS-V, VTELVREG] | fluorescence is only observed in the presence of biotinylated peptide | did not significantly change the amount of macrophage eating relative to anti-CD47 treatment | activity profiles in phagocytosis assays that are similar to the monovalent nS-F | – | – | – | – | – | – | – | –
2 | LETVEGTR (LETVEGTR-NH2) [nS-X, scrambled control peptide] | – | – | no effect is observed; also recorded: unaffected; also recorded: do not affect baseline engulfment of opsonized RBCs; also recorded: does not affect opsonization-driven eating of RBCs | no effect; also recorded: does not affect opsonization-driven eating | inhibition of phosphorylation is not observed | had no effect on pTyr | fluorescence was not observed at either concentration | predominantly adherent RBCs | do not have effects on phagocytosis | – | –
3 | VTELFREG (VTELFREG-NH2) [nS-F, nano-Self peptide with Thr to Phe mutation] | – | did not significantly change the amount of macrophage eating relative to anti-CD47 treatment; also recorded: only modest activity | significantly greater than any other peptide tested; also recorded: Maximum levels of phagocytic macrophages | Maximum levels of phagocytic macrophages | also suppressed pTyr | – | – | lowest amount of residual adhesion to macrophages | – | significantly greater than any other peptide tested | roughly 25%
